Here are results for 24 molecules from patent publication US20080280855A1, “Process For the Production of Intermediates For the Preparation of Tricyclic Benzimidazoles” (NYCOMED GmbH, priority 2005, published 2008).

Molecules are shown by their SMILES. Structures can show the parent of a compound that is named as a salt. Some results are limits rather than exact numbers.

The first data set deals with pentagastrin-stimulated acid secretion of the perfused rat stomach. As to the kind of experiment: Testing of the secretion-inhibiting action on the perfused rat stomach. To be noted: dose 1 μmol/kg i.d. (intraduodenal), anesthetized CD rat, female, continuous i.v. pentagastrin infusion.
A word on the inhibition in vivo: it is the share of the control response that was lost under treatment. A high value points to a strong effect. For the molecule `Cc1cc(F)ccc1[C@@H]1CCc2c(C(=O)N(C)C)cc3c(nc(C)n3C)c2O1` [N, (8S)-8-(4-Fluoro-2-methyl-phenyl)-2,3-dimethyl-3,6,7,8-tetrahydro-chromeno[7,8-d]imidazole-5-carboxylic Acid Dimethylamide], the inhibition in vivo at 1 µmol/kg was 100%.

As to `Cc1nc2c3c(c(C(=O)N(C)C)cc2n1C)CC[C@@H](c1ccc(F)cc1)O3` [G, (8S)-8-(4-Fluoro-phenyl)-2,3-dimethyl-3,6,7,8-tetrahydro-chromeno[7,8-d]imidazole-5-carboxylic Acid Dimethylamide Hydrochloride], the inhibition in vivo at 1 µmol/kg worked out at 100%.

Turning to `CNC(=O)c1cc2c(nc(C)n2C)c2c1CC[C@@H](c1ccccc1C)O2` [P, (8S)-2,3-Dimethyl-8-o-tolyl-3,6,7,8-tetrahydro-chromeno[7,8-d]imidazole-5-carboxylic Acid Methylamide], the inhibition in vivo at 1 µmol/kg turned out to be 100%.

As to `Cc1nc2c3c(c(C(=O)N(C)C)cc2[nH]1)CC[C@@H](c1ccccc1)O3` [C, (8S)-2-Methyl-8-phenyl-3,6,7,8-tetrahydro-chromeno[7,8-d]imidazole-5-carboxylic Acid Dimethylamide], the inhibition in vivo at 1 µmol/kg was over 90%.

`Cc1nc2c3c(c(C(=O)N(C)C)cc2n1C)CC[C@@H](c1ccccc1F)O3` [F, (8S)-8-(2-Fluoro-phenyl)-2,3-dimethyl-3,6,7,8-tetrahydro-chromeno[7,8-d]imidazole-5-carboxylic Acid Dimethylamide] yielded an inhibition in vivo at 1 µmol/kg of over 70%.

`Cc1sccc1[C@@H]1CCc2c(C(=O)N(C)C)cc3c(nc(C)n3C)c2O1` [V, (8S)-2,3-Dimethyl-8-(2-methyl-thiophen-3-yl)-3,6,7,8-tetrahydro-chromeno[7,8-d]imidazole-5-carboxylic acid dimethylamide] yielded an inhibition in vivo at 1 µmol/kg of 100%.

In turn, `Cc1nc2c3c(c(C(=O)N4CCC4)cc2n1C)CC[C@@H](c1ccccc1)O3` [D, (8S)-Azetidin-1-yl-(2,3-dimethyl-8-phenyl-3,6,7,8-tetrahydro-chromeno[7,8-d]imidazol-5-yl)-methanone] returned an inhibition in vivo at 1 µmol/kg of over 50%.

In the case of `Cc1nc2c3c(c(C(=O)N(C)C)cc2n1C)CC[C@@H](c1ccccc1)O3` [A, (8S)-2,3-Dimethyl-8-phenyl-3,6,7,8-tetrahydro-chromeno[7,8-d]imidazole-5-carboxylic Acid Dimethylamide], the inhibition in vivo at 1 µmol/kg is over 60%.

Molecule `Cc1ccccc1[C@@H]1CCc2c(C(=O)N3CCC3)cc3c(nc(C)n3C)c2O1` [Q, (8S)-Azetidin-1-yl-(2,3-dimethyl-8-o-tolyl-3,6,7,8-tetrahydro-chromeno[7,8-d]imidazol-5-yl)-methanone] registered an inhibition in vivo at 1 µmol/kg of 100%.

`CNC(=O)c1cc2c(nc(C)n2C)c2c1CC[C@@H](c1ccccc1)O2` [E, (8S)-2,3-Dimethyl-8-phenyl-3,6,7,8-tetrahydro-chromeno[7,8-d]imidazole-5-carboxylic Acid Methylamide]: the inhibition in vivo at 1 µmol/kg was over 80%.

Molecule `Cc1nc2c3c(c(C(=O)N(C)C)cc2n1C)CC[C@@H](c1ccccc1Cl)O3` [I, (8S)-8-(2-Chloro-phenyl)-2,3-dimethyl-3,6,7,8-tetrahydro-chromeno[7,8-d]imidazol-5-carboxylic Acid Dimethylamide] came in with an inhibition in vivo at 1 µmol/kg of over 70%.

Consider `Cc1ccccc1[C@@H]1CCc2c(C(=O)NC3CC3)cc3c(nc(C)n3C)c2O1` [W, (8S)-2,3-Dimethyl-8-o-tolyl-3,6,7,8-tetrahydro-chromeno[7,8-d]imidazole-5-carboxylic acid cyclopropylamide], for which the inhibition in vivo at 1 µmol/kg was determined as 100%.

Consider `Cc1ccccc1[C@@H]1CCc2c(C(=O)N3CCCC3)cc3c(nc(C)n3C)c2O1` [O, (8S)-(2,3-Dimethyl-8-o-tolyl-3,6,7,8-tetrahydro-chromeno[7,8-d]imidazol-5-yl)-pyrrolidin-1-yl-methanone], for which the inhibition in vivo at 1 µmol/kg is over 60%.

Staying with this data set, now noted: dose 1 μmol/kg i.d. (intraduodenal), in vivo, anesthetized CD rat, female; continuous i.v. pentagastrin infusion.
Regarding `Cc1ccccc1[C@@H]1CCc2c(C(=O)N(C)C)cc3c(nc(C)n3C)c2O1` [H, (8S)-2,3-Dimethyl-8-o-tolyl-3,6,7,8-tetrahydro-chromeno[7,8-d]imidazole-5-carboxylic Acid Dimethylamido], the “Inhibition of acid secretion (%)” value was 100%.

Regarding `CCc1ccccc1[C@@H]1CCc2c(C(=O)N(C)C)cc3c(nc(C)n3C)c2O1` [L, (8S)-(2-Ethyl-phenyl)-2,3-dimethyl-3,6,7,8-tetrahydro-chromeno[7,8-d]imidazole-5-carboxylic Acid Dimethylamide], the “Inhibition of acid secretion (%)” value is over 70%.

System in a further data set: not given
Experiment: not given
Settings: not given
As usually defined, the melting point is the temperature, or range, at which the solid turns liquid. Turning to `Cc1nc2c(O)c(CC[C@@H](O)c3ccc4ccccc4c3)c(C(=O)N(C)C)cc2n1C` [Example 10, (3R)-7-Hydroxy-6-(3-hydroxy-3-naphthalen-2-yl-propyl)-2,3-dimethyl-3H-benzoimidazole-5-carboxylic Acid Dimethylamide], the melting point is 145 to 147 °C.

`Cc1ccccc1[C@H](O)CCc1c(C(=O)N(C)C)cc2c(nc(C)n2C)c1O` [Example 7, (3R)-7-Hydroxy-6-(3-hydroxy-3-o-tolyl-propyl)-2,3-dimethyl-3H-benzoimidazole-5-carboxylic Acid Dimethylamide] registered a melting point of 139 to 140 °C.

In the case of `CCc1ccccc1[C@H](O)CCc1c(C(=O)N(C)C)cc2c(nc(C)n2C)c1O` [Example 11, (3R)-6-[3-(2-Ethyl-phenyl)-3-hydroxy-propyl]-7-hydroxy-2,3-dimethyl-3H-benzoimidazole-5-carboxylic Acid Dimethylamide], the melting point was 135 to 137 °C.

`Cc1nc2c3c(c(C(=O)N(C)C)cc2[nH]1)CC[C@@H](c1ccccc1)O3` [C, (8S)-2-Methyl-8-phenyl-3,6,7,8-tetrahydro-chromeno[7,8-d]imidazole-5-carboxylic Acid Dimethylamide] registered a melting point of 215 to 216 °C.

In the case of `Cc1ccccc1[C@@H](O)CCc1c(C(=O)N(C)C)cc2c(nc(C)n2C)c1O` [Example 25, (3S)-7-Hydroxy-6-(3-hydroxy-3-o-tolyl-propyl)-2,3-dimethyl-3H-benzoimidazole-5-carboxylic Acid Dimethylamide], the melting point is 203 to 205 °C.

Consider `CNC(=O)c1cc2c(nc(C)n2C)c(O)c1CC[C@@H](O)c1ccccc1` [Example 4, (3R)-7-Hydroxy-6-(3-hydroxy-3-phenyl-propyl)-2,3-dimethyl-3H-benzoimidazole-5-carboxylic Acid Methylamide], for which the melting point was in the range of 247 to 249 °C.

Molecule `Cc1nc2c(O)c(CC[C@@H](O)c3ccccc3)c(C(=O)N3CCC3)cc2n1C` [Example 3, (3R)-Azetidin-1-yl-[7-hydroxy-6-(3-hydroxy-3-phenyl-propyl)-2,3-dimethyl-3H-benzoimidazol-5-yl]-methanone] showed a melting point of 265 to 266 °C.

`Cc1nc2c(O)c(CC[C@@H](O)c3ccccc3)c(C(=O)N(C)C)cc2n1COCC[Si](C)(C)C` gave a melting point of 142 to 143 °C.

`Cc1nc2c(O)c(CC[C@@H](O)c3cccs3)c(C(=O)N(C)C)cc2n1C` [Example 12, (3R)-7-Hydroxy-6-(3-hydroxy-3-thiophen-2-yl-propyl)-2,3-dimethyl-3H-benzoimidazole-5-carboxylic Acid Dimethylamide] came in with a melting point of 264 to 265 °C.

Molecule `Cc1nc2c(O)c(CC[C@@H](O)c3ccc(F)cc3)c(C(=O)N(C)C)cc2n1C` [Example 6, (3R)-6-[3-(4-Fluoro-phenyl)-3-hydroxy-propyl]-7-hydroxy-2,3-dimethyl-3H-benzoimidazole-5-carboxylic Acid Dimethylamide] returned a melting point of 276 to 277 °C.
